39 sequences from PMC4584933, “Establishing the pig as a large animal model for vaccine development against human cancer” (Frontiers in Genetics, 2015) can be followed below.

Test [1] deals with SLA-2*05:02. Briefly: Peptide-MHC class I complex stability, scintillation proximity assay (SPA). The settings on record: biotinylated recombinant SLA heavy chain, 125I-β2m, excess unlabeled β2m, read every 40 min, number only if t1/2 ≥ 0.5 h, '-' = not stably binding. The arrangement: species or system pig. On the procedure:
(§1) The stability of the selected 198 peptides in complex with relevant SLA class I molecules and β2m was determined using a scintillation proximity assay (SPA), as previously described (Harndahl et al., [2011]). Briefly, biotinylated recombinant MHC class I heavy chains were attached to a streptavidin-coated scintillation microplate together with iodinated (^125I) β2m and candidate peptide resulting in a scintillation signal, which was consecutively measured every 40 min by a scintillation plate counter. The duration of this signal is directly correlated to the stability of the peptide-MHC class I-β2m complex under dissociating conditions and in the presence of excess unlabeled β2m (Harndahl et al., [2011]). Peptides with a half-life ≥ 0.5 h were selected as stable binders.
In general terms: In a scintillation proximity assay essentially only radioactivity close to the scintillant gives light.

Test [2] concerns PBMCs. In words: In vitro peptide stimulation of porcine PBMCs, IFN-γ release assay (ELISA). Type of test: cell-based, pig. The arrangement: key to T cell response: “x” indicates that a response was found to this given peptide at least once. The settings on record: 5 μg/ml peptide; for T cell response: PBMCs of immunized pigs, 2 × 10^5/well, 67.5–70.0 h, IFN-γ ELISA, response = 2-fold increase vs day -2 and at least 25 pg/ml IFN-γ, found at least once, SLA restriction not included.

Test [3] deals with SLA-1*07:02. Briefly: Peptide-MHC class I complex stability, scintillation proximity assay (SPA). Also noted: species or system pig. The note with it: biotinylated recombinant SLA heavy chain, 125I-β2m, excess unlabeled β2m, read every 40 min, number only if t1/2 ≥ 0.5 h, '-' = not stably binding. As to the method:
as §1

The test system of test [4] is SLA-2*04:01. Described as above. The settings on record: biotinylated recombinant SLA heavy chain, 125I-β2m, excess unlabeled β2m, read every 40 min, number only if t1/2 ≥ 0.5 h, '-' = not stably binding. The arrangement: species or system pig. As to the method: as §1
In test [5] the test system is SLA-3*04:01. The test is described as above. The settings on record: biotinylated recombinant SLA heavy chain, 125I-β2m, excess unlabeled β2m, read every 40 min, number only if t1/2 ≥ 0.5 h, '-' = not stably binding. The arrangement: species or system pig. On the procedure:
as §1

For “ALQKALLDI [IDO5, porcine IDO-derived 9-11mer peptide]”, in test [1], the “Binder (t1/2 ≥ 0.5 h): half-life of peptide-SLA-2*05:02 complex” value (“Binder … of peptide-SLA-2*05:02 complex” below) is listed as “- (t1/2 (hours) is listed for each of the stably binding peptides (t1/2 ≥ 0.5 h))”. The T cell response entry in test [2] was “x”.
The matching figures for “DLRQDEHTR [RhoC6, porcine RhoC-derived 9-11mer peptide]”: 30 min and “x”.
The matching figures for “DVILMCFSI [RhoC12, porcine RhoC-derived 9-11mer peptide]”: 354 min and “x”.
As to “EIAAASAIKV [IDO15, porcine IDO-derived 9-11mer peptide]”, the “Binder … of peptide-SLA-2*05:02 complex” value in test [1] was 156 min. Moreover, the T cell response result in test [2] is listed as “x”. In addition, the “maximum level of secreted IFN-γ” value in test [2] (pig 2042 (CASAC), day 12, following 72 h of stimulation, ELISA) was 280 pg/mL.
“ELAKMKQEPVR [RhoC16, porcine RhoC-derived 9-11mer peptide]”: the “Binder … of peptide-SLA-2*05:02 complex” value in test [1] stood at 48 min. Moreover, the T cell response result in test [2] is recorded as “x”.
On to “ENIPEKWTPEV [RhoC18, porcine RhoC-derived 9-11mer peptide]”, for which, in test [1], the “Binder … of peptide-SLA-2*05:02 complex” value amounted to 90 min. The T cell response result in test [2] was “x”.
In the case of “EPVRSEEGRDM [RhoC20, porcine RhoC-derived 9-11mer peptide]”, the “Binder (t1/2 ≥ 0.5 h): half-life of peptide-SLA-1*07:02 complex” value (“Binder … of peptide-SLA-1*07:02 complex” below) in test [3] was 30 min.
Consider “EVEKLATLSI [IDO20, porcine IDO-derived 9-11mer peptide]”, for which the “Binder … of peptide-SLA-2*05:02 complex” value in test [1] came out at 42 min. Moreover, the T cell response entry in test [2] is “x”.
The matching figures for “EVKHFCPNV [RhoC23, porcine RhoC-derived 9-11mer peptide]”: 120 min and “x”.
The matching figures for “EVKHFCPNVPI [RhoC24, porcine RhoC-derived 9-11mer peptide]”: 336 min and “x”.
As for “EVYVPTVFENY [RhoC25, porcine RhoC-derived 9-11mer peptide]”, the “Binder (t1/2 ≥ 0.5 h): half-life of peptide-SLA-2*04:01 complex” value (from here on “Binder … of peptide-SLA-2*04:01 complex”) in test [4] is 36 min. Also, the “Binder … of peptide-SLA-1*07:02 complex” value in test [3] was determined as 264 min.
As to “FLHSLESGPSV [IDO23, porcine IDO-derived 9-11mer peptide]”, the “Binder … of peptide-SLA-2*05:02 complex” value in test [1] amounted to 36 min. Besides, the T cell response result in test [2] is on record as “x”.
As for “FLQEMRTYM [IDO24, porcine IDO-derived 9-11mer peptide]”, in test [3], the “Binder … of peptide-SLA-1*07:02 complex” value was “- (t1/2 (hours) is listed for each of the stably binding peptides (t1/2 ≥ 0.5 h))”.
Same read-out and setting: next, “FPGGDCGKGFF [IDO30, porcine IDO-derived 9-11mer peptide]”: “- (t1/2 (hours) is listed for each of the stably binding peptides (t1/2 ≥ 0.5 h))”; “HLVLGYITM [IDO40, porcine IDO-derived 9-11mer peptide]”: “- (t1/2 (hours) is listed for each of the stably binding peptides (t1/2 ≥ 0.5 h))”; “HLVLGYITMAY [IDO41, porcine IDO-derived 9-11mer peptide]”: 30 min.
Take “HPYDAWIAI [IDO42, porcine IDO-derived 9-11mer peptide]”: the “Binder … of peptide-SLA-1*07:02 complex” value in test [3] is reported as “- (t1/2 (hours) is listed for each of the stably binding peptides (t1/2 ≥ 0.5 h))”.
“HPYDAWIAIAK [IDO43, porcine IDO-derived 9-11mer peptide]”: the “Binder … of peptide-SLA-1*07:02 complex” value in test [3] was “- (t1/2 (hours) is listed for each of the stably binding peptides (t1/2 ≥ 0.5 h))”.
For the sequence “KGFFLVSLL [IDO49, porcine IDO-derived 9-11mer peptide]”, in test [1], the “Binder … of peptide-SLA-2*05:02 complex” value is “- (t1/2 (hours) is listed for each of the stably binding peptides (t1/2 ≥ 0.5 h))”. Besides, the “Binder (t1/2 ≥ 0.5 h): half-life of peptide-SLA-3*04:01 complex” value (“Binder … of peptide-SLA-3*04:01 complex” for short) in test [5] is given as “- (t1/2 (hours) is listed for each of the stably binding peptides (t1/2 ≥ 0.5 h))”.
Turning to “KLGLPPILVY [IDO55, porcine IDO-derived 9-11mer peptide]”, the “Binder … of peptide-SLA-1*07:02 complex” value in test [3] is on record as “- (t1/2 (hours) is listed for each of the stably binding peptides (t1/2 ≥ 0.5 h))”.
Regarding “KVLPRNIAI [IDO62, porcine IDO-derived 9-11mer peptide]”, the “Binder … of peptide-SLA-2*05:02 complex” value in test [1] is listed as “- (t1/2 (hours) is listed for each of the stably binding peptides (t1/2 ≥ 0.5 h))”. Moreover, in test [5], the “Binder … of peptide-SLA-3*04:01 complex” value is reported as “- (t1/2 (hours) is listed for each of the stably binding peptides (t1/2 ≥ 0.5 h))”.
On to “LGLPPILVY [IDO65, porcine IDO-derived 9-11mer peptide]”, for which the “Binder … of peptide-SLA-2*04:01 complex” value in test [4] is given as “- (t1/2 (hours) is listed for each of the stably binding peptides (t1/2 ≥ 0.5 h))”. In test [3], the “Binder … of peptide-SLA-1*07:02 complex” value is reported as “- (t1/2 (hours) is listed for each of the stably binding peptides (t1/2 ≥ 0.5 h))”.
For “LLVEIAAASAI [IDO68, porcine IDO-derived 9-11mer peptide]”, the “Binder … of peptide-SLA-2*05:02 complex” value in test [1] came out at 30 min. Moreover, the T cell response result in test [2] is given as “x”.
With “LPNPLEELPH [IDO69, porcine IDO-derived 9-11mer peptide]”, in test [3], the “Binder … of peptide-SLA-1*07:02 complex” value was “- (t1/2 (hours) is listed for each of the stably binding peptides (t1/2 ≥ 0.5 h))”.
As to “LSYPDTDVIL [RhoC36, porcine RhoC-derived 9-11mer peptide]”, the “Binder … of peptide-SLA-2*05:02 complex” value in test [1] turned out to be 36 min. Also, in test [2], the T cell response entry is reported as “x”.
For “LSYPDTDVILM [RhoC37, porcine RhoC-derived 9-11mer peptide]”, the “Binder … of peptide-SLA-2*05:02 complex” value in test [1] was 84 min. For the same sequence, in test [4], the “Binder … of peptide-SLA-2*04:01 complex” value is reported as “- (t1/2 (hours) is listed for each of the stably binding peptides (t1/2 ≥ 0.5 h))”.
Regarding “LVLGYITMAY [IDO73, porcine IDO-derived 9-11mer peptide]”, the “Binder … of peptide-SLA-2*04:01 complex” value in test [4] was 48 min. In test [3], the “Binder … of peptide-SLA-1*07:02 complex” value amounted to 240 min.
As to “MPPAHRNFLH [IDO77, porcine IDO-derived 9-11mer peptide]”, the “Binder … of peptide-SLA-1*07:02 complex” value in test [3] is reported as “- (t1/2 (hours) is listed for each of the stably binding peptides (t1/2 ≥ 0.5 h))”.
“MTYKNMDIL [IDO80, porcine IDO-derived 9-11mer peptide]”: the “Binder … of peptide-SLA-2*05:02 complex” value in test [1] is given as “- (t1/2 (hours) is listed for each of the stably binding peptides (t1/2 ≥ 0.5 h))”. Besides, in test [4], the “Binder … of peptide-SLA-2*04:01 complex” value is on record as “- (t1/2 (hours) is listed for each of the stably binding peptides (t1/2 ≥ 0.5 h))”. Also, the “Binder … of peptide-SLA-3*04:01 complex” value in test [5] is reported as “- (t1/2 (hours) is listed for each of the stably binding peptides (t1/2 ≥ 0.5 h))”.
Turning to “NPLEELPHPY [IDO86, porcine IDO-derived 9-11mer peptide]”, in test [3], the “Binder … of peptide-SLA-1*07:02 complex” value was found to be 312 min.
With “NSWKIFEEYHI [IDO91, porcine IDO-derived 9-11mer peptide]”, the “Binder … of peptide-SLA-2*05:02 complex” value in test [1] came to 126 min. The T cell response result in test [2] is on record as “x”.
For “PLLSEGLLY [IDO95, porcine IDO-derived 9-11mer peptide]”, in test [3], the “Binder … of peptide-SLA-1*07:02 complex” value was 42 min.
Still for that read-out and setting: for “QAMVSLRNY [IDO100, porcine IDO-derived 9-11mer peptide]” the value was “- (t1/2 (hours) is listed for each of the stably binding peptides (t1/2 ≥ 0.5 h))”; for “RPLSYPDTDV [RhoC46, porcine RhoC-derived 9-11mer peptide]”, “- (t1/2 (hours) is listed for each of the stably binding peptides (t1/2 ≥ 0.5 h))”.
Consider “SAIKVIPTLF [IDO114, porcine IDO-derived 9-11mer peptide]”, for which the “Binder … of peptide-SLA-2*05:02 complex” value in test [1] is “- (t1/2 (hours) is listed for each of the stably binding peptides (t1/2 ≥ 0.5 h))”. Besides, in test [4], the “Binder … of peptide-SLA-2*04:01 complex” value was found to be 30 min. Further, the T cell response entry in test [2] is “x”.
With “SLRNYHLQI [IDO118, porcine IDO-derived 9-11mer peptide]”, the “Binder … of peptide-SLA-2*05:02 complex” value in test [1] was “- (t1/2 (hours) is listed for each of the stably binding peptides (t1/2 ≥ 0.5 h))”. Further, in test [5], the “Binder … of peptide-SLA-3*04:01 complex” value is recorded as “- (t1/2 (hours) is listed for each of the stably binding peptides (t1/2 ≥ 0.5 h))”.
Consider “TVFENYIADI [RhoC51, porcine RhoC-derived 9-11mer peptide]”, for which the “Binder … of peptide-SLA-2*05:02 complex” value in test [1] stood at 54 min. In addition, in test [2], the T cell response result is “x”.
As to “VSLRNYHLQI [IDO130, porcine IDO-derived 9-11mer peptide]”, the “Binder … of peptide-SLA-2*05:02 complex” value in test [1] was “- (t1/2 (hours) is listed for each of the stably binding peptides (t1/2 ≥ 0.5 h))”. Further, the “Binder … of peptide-SLA-3*04:01 complex” value in test [5] is on record as “- (t1/2 (hours) is listed for each of the stably binding peptides (t1/2 ≥ 0.5 h))”.
For the sequence “WKIFEEYHI [IDO131, porcine IDO-derived 9-11mer peptide]”, the “Binder … of peptide-SLA-2*05:02 complex” value in test [1] came out at 138 min. In test [2], the T cell response result is “x”.
